{
  "source": "PubChem BioAssay (NCI)",
  "experiment_in_all_cases": "inhibition of tumour cell growth, NCI panel, 48 h",
  "key": {"[1]": {"tested_on": "HT29 colon"}, "[2]": {"tested_on": "SK-OV-3 ovarian"}, "[3]": {"tested_on": "IGROV1 ovarian"}, "[4]": {"tested_on": "SF-268 CNS"}, "[5]": {"tested_on": "K-562 leukemia"}, "[6]": {"tested_on": "UACC-257 melanoma"}, "[7]": {"tested_on": "OVCAR-3 ovarian"}, "[8]": {"tested_on": "A549 NSCLC"}, "[9]": {"tested_on": "T-47D breast"}, "[10]": {"tested_on": "M14 melanoma"}, "[11]": {"tested_on": "MDA-MB-435"}, "[12]": {"tested_on": "TK-10 renal"}, "[13]": {"tested_on": "CCRF-CEM leukemia"}, "[14]": {"tested_on": "KM12 colon"}, "[15]": {"tested_on": "SF-539 CNS"}, "[16]": {"tested_on": "NCI/ADR-RES ovarian"}, "[17]": {"tested_on": "SK-MEL-2 melanoma"}, "[18]": {"tested_on": "ACHN renal"}, "[19]": {"tested_on": "SW-620 colon"}, "[20]": {"tested_on": "OVCAR-5 ovarian"}},
  "note": "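These data come from cells grown in 96-well plates and exposed to compound for 48 hours at five concentrations. TGI denotes the concentration required for complete inhibition of growth.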",
  "data": [
    {"smiles": "C[C@]12CC[C@@H]3c4ccc(O)cc4CC[C@H]3[C@@H]1C/C(=C\\c1ccncc1)C2=O", "values": [
      {"measurement": "TGI", "setting": "[1]", "result": 72.2, "unit": "µM"},
      {"measurement": "TGI", "setting": "[2]", "result": "> 100", "unit": "µM"},
      {"measurement": "TGI", "setting": "[3]", "result": 68.3, "unit": "µM"},
      {"measurement": "TGI", "setting": "[4]", "result": "> 100", "unit": "µM"},
      {"measurement": "TGI", "setting": "[5]", "result": "> 100", "unit": "µM"},
      {"measurement": "TGI", "setting": "[6]", "result": "> 100", "unit": "µM"},
      {"measurement": "TGI", "setting": "[7]", "result": 50.5, "unit": "µM"},
      {"measurement": "TGI", "setting": "[8]", "result": "> 100", "unit": "µM"},
      {"measurement": "TGI", "setting": "[9]", "result": "> 100", "unit": "µM"},
      {"measurement": "TGI", "setting": "[10]", "result": "> 100", "unit": "µM"},
      {"measurement": "TGI", "setting": "[11]", "result": 74.9, "unit": "µM"},
      {"measurement": "TGI", "setting": "[12]", "result": "> 100", "unit": "µM"},
      {"measurement": "TGI", "setting": "[13]", "result": "> 100", "unit": "µM"},
      {"measurement": "TGI", "setting": "[14]", "result": 37.6, "unit": "µM"},
      {"measurement": "TGI", "setting": "[15]", "result": 28.9, "unit": "µM"},
      {"measurement": "TGI", "setting": "[16]", "result": 60.1, "unit": "µM"},
      {"measurement": "TGI", "setting": "[17]", "result": 48.7, "unit": "µM"},
      {"measurement": "TGI", "setting": "[18]", "result": "> 100", "unit": "µM"},
      {"measurement": "TGI", "setting": "[19]", "result": "> 100", "unit": "µM"},
      {"measurement": "TGI", "setting": "[20]", "result": "> 100", "unit": "µM"}
    ]},
    {"smiles": "COC(=O)C1C(C(=O)OC)N(Cc2ccccc2)C(=O)N1Cc1ccccc1", "note": "(stereo not given)", "values": [
      {"measurement": "TGI", "setting": "[1]", "result": "> 100", "unit": "µM"},
      {"measurement": "TGI", "setting": "[2]", "result": "> 100", "unit": "µM"},
      {"measurement": "TGI", "setting": "[3]", "result": "> 100", "unit": "µM"},
      {"measurement": "TGI", "setting": "[4]", "result": "> 100", "unit": "µM"},
      {"measurement": "TGI", "setting": "[5]", "result": "> 100", "unit": "µM"},
      {"measurement": "TGI", "setting": "[6]", "result": "> 100", "unit": "µM"},
      {"measurement": "TGI", "setting": "[7]", "result": "> 100", "unit": "µM"},
      {"measurement": "TGI", "setting": "[8]", "result": "> 100", "unit": "µM"},
      {"measurement": "TGI", "setting": "[9]", "result": "> 100", "unit": "µM"},
      {"measurement": "TGI", "setting": "[10]", "result": "> 100", "unit": "µM"},
      {"measurement": "TGI", "setting": "[11]", "result": "> 100", "unit": "µM"},
      {"measurement": "TGI", "setting": "[12]", "result": "> 100", "unit": "µM"},
      {"measurement": "TGI", "setting": "[13]", "result": "> 100", "unit": "µM"},
      {"measurement": "TGI", "setting": "[14]", "result": "> 100", "unit": "µM"},
      {"measurement": "TGI", "setting": "[15]", "result": "> 100", "unit": "µM"},
      {"measurement": "TGI", "setting": "[16]", "result": "> 100", "unit": "µM"},
      {"measurement": "TGI", "setting": "[17]", "result": "> 100", "unit": "µM"},
      {"measurement": "TGI", "setting": "[18]", "result": "> 100", "unit": "µM"},
      {"measurement": "TGI", "setting": "[19]", "result": "> 100", "unit": "µM"},
      {"measurement": "TGI", "setting": "[20]", "result": "> 100", "unit": "µM"}
    ]},
    {"smiles": "CCN1c2ccccc2-n2c(C)nnc2-c2c1n[nH]c2-c1ccccc1", "values": [
      {"measurement": "TGI", "setting": "[1]", "result": "> 100", "unit": "µM"},
      {"measurement": "TGI", "setting": "[2]", "result": "> 100", "unit": "µM"},
      {"measurement": "TGI", "setting": "[3]", "result": "> 100", "unit": "µM"},
      {"measurement": "TGI", "setting": "[4]", "result": "> 100", "unit": "µM"},
      {"measurement": "TGI", "setting": "[5]", "result": 26, "unit": "µM"},
      {"measurement": "TGI", "setting": "[6]", "result": "> 100", "unit": "µM"},
      {"measurement": "TGI", "setting": "[7]", "result": "> 100", "unit": "µM"},
      {"measurement": "TGI", "setting": "[8]", "result": "> 100", "unit": "µM"},
      {"measurement": "TGI", "setting": "[9]", "result": 74.7, "unit": "µM"},
      {"measurement": "TGI", "setting": "[10]", "result": "> 100", "unit": "µM"},
      {"measurement": "TGI", "setting": "[11]", "result": 82.9, "unit": "µM"},
      {"measurement": "TGI", "setting": "[12]", "result": "> 100", "unit": "µM"},
      {"measurement": "TGI", "setting": "[13]", "result": 55.4, "unit": "µM"},
      {"measurement": "TGI", "setting": "[14]", "result": "> 100", "unit": "µM"},
      {"measurement": "TGI", "setting": "[15]", "result": "> 100", "unit": "µM"},
      {"measurement": "TGI", "setting": "[16]", "result": 73.1, "unit": "µM"},
      {"measurement": "TGI", "setting": "[17]", "result": 45.6, "unit": "µM"},
      {"measurement": "TGI", "setting": "[18]", "result": "> 100", "unit": "µM"},
      {"measurement": "TGI", "setting": "[19]", "result": "> 100", "unit": "µM"},
      {"measurement": "TGI", "setting": "[20]", "result": "> 100", "unit": "µM"}
    ]}
  ]
}
